Test results taken from patent publication US5541116A, “Method for the stabilization of endogenous, physiologically active peptides” (B.R.A.H.M.S. Diagnostica GmbH, priority 1991, dated 1996).
Like-named read-outs stand apart in the source and are kept apart here. Where a SMILES comes first, the peptide text is derived from it. [ ]: non-standard residue; d: D form. The star is where a group is joined. Sta = CC(C)C[C@H](N)[C@@H](O)CC(=O)O; Isovaleryl = CC(C)CC(=O)*

Experiments:
[1] = test system: endogenous proteases which are active in human serum and plasma; assay: Hydrolysis of 125I-ACTH 1-39 in human serum or EDTA plasma with protease inhibitors (RP-HPLC, radioactivity detection); format: biochemical
[2] = test system: endogenous proteases which are active in human serum and plasma; assay: Variation of inhibitor concentrations to find the minimum needed for adequate protection of the peptides; format: biochemical; conditions: in the presence of the other inhibitors; serum or plasma sample
Description: To determine the concentrations of the individual inhibitors which are required for adequate protection of the peptides, in the presence of the other inhibitors, the concentrations were repeatedly varied.

[3] = 125I-ACTH 1-39, inhibitor 1 mM, EDTA plasma, 22° C., 25 h
[4] = 125I-ACTH 1-39, inhibitor 1 mM, serum, 22° C., 18 h
[5] = 125I-ACTH 1-39, inhibitor 100 μM, EDTA plasma, 22° C., 25 h
[6] = 125I-ACTH 1-39, inhibitor 100 μM, serum, 22° C., 18 h

Molecule: CC(C)C[C@H](NC(=O)[C@@H](O)[C@H](N)Cc1ccccc1)C(=O)O [Bestatin]
- % of hydrolysis rate of the control, in EDTA plasma [1, 3]: 27%
- % of hydrolysis rate of the control, in serum [1, 4]: 44%

Molecule: Heparin
- % of hydrolysis rate of the control, in EDTA plasma ([1]; 125I-ACTH 1-39, inhibitor 5 mg/ml, EDTA plasma, 22° C., 25 h): 103%
- % of hydrolysis rate of the control, in serum ([1]; 125I-ACTH 1-39, inhibitor 5 mg/ml, serum, 22° C., 18 h): 126%

Molecule: CC(C)C[C@H](NC(=O)N[C@H](C(=O)N[C@@H](CCC(N)=O)C(=O)N[C@@H](C)C=O)[C@@H]1CCNC(=N)N1)C(=O)O [Elastatinal]
- % of hydrolysis rate of the control, in EDTA plasma [1, 5]: 100%
- % of hydrolysis rate of the control, in serum [1, 6]: 97%

Molecule: N=C(N)c1ccccc1 [Benzamidine]
- % of hydrolysis rate of the control, in EDTA plasma [1, 3]: 80%
- % of hydrolysis rate of the control, in serum [1, 4]: 84%

Molecule: CC(C)C[C@@H](N)[C@H](O)C(=O)N[C@H](C(=O)N[C@H](C(=O)N[C@@H](CC(=O)O)C(=O)O)C(C)C)C(C)C [Amastatin]
- % of hydrolysis rate of the control, in EDTA plasma [1, 5]: 3%
- % of hydrolysis rate of the control, in serum [1, 6]: 17%

Molecule: Antithrombin III
- % of hydrolysis rate of the control, in EDTA plasma ([1]; 125I-ACTH 1-39, inhibitor 0.1 unit/ml, EDTA plasma, 22° C., 25 h): 79%
- % of hydrolysis rate of the control, in serum ([1]; 125I-ACTH 1-39, inhibitor 0.1 unit/ml, serum, 22° C., 18 h): 107%

Molecule: CC(C)CC(=O)N[C@H](C(=O)N[C@H](C(=O)N[C@@H](CC(C)C)[C@@H](O)CC(=O)N[C@@H](C)C(=O)N[C@@H](CC(C)C)[C@@H](O)CC(=O)O)C(C)C)C(C)C [Pepstatin] (Isovaleryl-VV[Sta]A[Sta]-OH)
- % of hydrolysis rate of the control, in EDTA plasma [1, 5]: 79%
- % of hydrolysis rate of the control, in serum [1, 6]: 105%

Molecule: CCN1C(=O)C=CC1=O [N-Ethylmaleimide]
- % of hydrolysis rate of the control, in EDTA plasma ([1]; 125I-ACTH 1-39, inhibitor 2 mM, EDTA plasma, 22° C., 25 h): 54%
- % of hydrolysis rate of the control, in serum ([1]; 125I-ACTH 1-39, inhibitor 2 mM, serum, 22° C., 18 h): 48%

Molecule: CC(=O)N[C@@H](CC(C)C)C(=O)N[C@@H](CC(C)C)C(=O)N[C@H](C=O)CCCNC(=N)N [Leupeptin]
- minimum concentration present in the sample for effective protection [2]: 50 µM
- % of hydrolysis rate of the control, in EDTA plasma [1]: 27
- % of hydrolysis rate of the control, in serum [1]: 41

Molecule: O=S(=O)(F)Cc1ccccc1 [Phenylmethylsulphonyl fluoride]
- % of hydrolysis rate of the control, in EDTA plasma [1]: 100
- % of hydrolysis rate of the control, in serum [1]: 97

Molecule: O=S(=O)(O)c1cc[c]([Hg][Cl])cc1 [p-Choloromercuryphenylsulphonic acid, p-Choloromercury-phenylsulphonic acid]
- % of hydrolysis rate of the control, in EDTA plasma [1]: 62
- % of hydrolysis rate of the control, in serum [1]: 94

Molecule: CC(C)C[C@H](NP(=O)(O)O[C@@H]1O[C@@H](C)[C@H](O)[C@@H](O)[C@H]1O)C(=O)N[C@@H](Cc1c[nH]c2ccccc12)C(=O)O [Phosphoramidone]
- % of hydrolysis rate of the control, in EDTA plasma [1, 3]: 85%
- % of hydrolysis rate of the control, in serum [1, 4]: 98%

B1: Trypsin inhibitor (soybean): soybean trypsin inhibitor (Sigma T-900) (protein, UniProt P01070 25-205, looked up)
Trypsin inhibitor A: DFVLDNEGNPLENGGTYYILSDITAFGGIRAAPTGNERCPLTVVQSRNELDKGIGTIISSPYRIRFIAEGHPLSLKFDSFAVIMLCVGIPTEWSVVEDLPEGPAVKIGENKDAMDGWFRLERVSDDEFNNYKLVFCPQQAEDDKCGDIGISIDHDDGTRRLVVSKNKPLVVQFQKLDKESL
- % of hydrolysis rate of the control, in EDTA plasma ([1]; 125I-ACTH 1-39, inhibitor 0.1 mg/ml, EDTA plasma, 22° C., 25 h): 71%
- % of hydrolysis rate of the control, in serum ([1]; 125I-ACTH 1-39, inhibitor 0.1 mg/ml, serum, 22° C., 18 h): 78%
